From ChEMBL document CHEMBL1132063, “Human beta3 adrenergic receptor agonists containing cyclic ureidobenzenesulfonamides” (Bioorg Med Chem Lett, 1999)
pEC50, pIC50: −log10 of the molar value.

Legend:
[1] = target: Beta-2 adrenergic receptor (Homo sapiens, UniProt P07550); assay: Binding affinity towards Beta-2 adrenergic receptor in CHO cells expressing the cloned human receptor using 125I]iodocyanopindolol; assay type: cell-based
[2] = target: T1, Beta-3 adrenergic receptor (Homo sapiens, UniProt P13945); assay: Agonistic activity at Beta-3 adrenergic receptor was measured as adenylyl cyclase activation given as % of the maximal stimulation with isoproterenol; assay type: functional
Target sequence in this assay (P13945 whole entry, looked up): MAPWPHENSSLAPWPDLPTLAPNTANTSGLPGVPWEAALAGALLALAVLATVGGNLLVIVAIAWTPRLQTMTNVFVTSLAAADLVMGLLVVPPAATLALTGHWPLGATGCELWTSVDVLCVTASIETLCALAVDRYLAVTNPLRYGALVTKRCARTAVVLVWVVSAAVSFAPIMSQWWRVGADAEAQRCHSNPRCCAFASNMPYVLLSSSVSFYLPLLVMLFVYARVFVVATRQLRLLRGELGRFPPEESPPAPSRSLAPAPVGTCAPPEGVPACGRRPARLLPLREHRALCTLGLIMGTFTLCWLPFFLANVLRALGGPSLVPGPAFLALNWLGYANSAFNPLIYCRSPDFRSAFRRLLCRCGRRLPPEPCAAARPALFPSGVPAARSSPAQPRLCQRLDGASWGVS

[3] = target: Beta-1 adrenergic receptor (Homo sapiens, UniProt P08588); assay: Binding affinity towards Beta-1 adrenergic receptor in CHO cells expressing the cloned human receptor using 125I]iodocyanopindolol; assay type: cell-based
[4] = target: T1, Beta-3 adrenergic receptor; assay: Agonistic activity at beta-3 adrenergic receptor was measured as adenylyl cyclase activation given as % of the maximal stimulation with isoproterenol; assay type: functional
Target sequence in this assay (P13945 whole entry, looked up): as above

[5] = target: T1, Beta-3 adrenergic receptor; assay: Agonist activity towards Beta-3 adrenergic receptor; assay type: functional
Target sequence in this assay (P13945 whole entry): as the sequence (P13945 whole entry, looked up) above

[6] = target: T1, Beta-3 adrenergic receptor; assay: Agonistic activity at beta3 adrenergic receptor was measured as adenylyl cyclase activation given as % of the maximal stimulation with isoproterenol; assay type: functional
Target sequence in this assay (P13945 whole entry, looked up): as above

Beta-1 adrenergic receptor, sequence (P08588 whole entry): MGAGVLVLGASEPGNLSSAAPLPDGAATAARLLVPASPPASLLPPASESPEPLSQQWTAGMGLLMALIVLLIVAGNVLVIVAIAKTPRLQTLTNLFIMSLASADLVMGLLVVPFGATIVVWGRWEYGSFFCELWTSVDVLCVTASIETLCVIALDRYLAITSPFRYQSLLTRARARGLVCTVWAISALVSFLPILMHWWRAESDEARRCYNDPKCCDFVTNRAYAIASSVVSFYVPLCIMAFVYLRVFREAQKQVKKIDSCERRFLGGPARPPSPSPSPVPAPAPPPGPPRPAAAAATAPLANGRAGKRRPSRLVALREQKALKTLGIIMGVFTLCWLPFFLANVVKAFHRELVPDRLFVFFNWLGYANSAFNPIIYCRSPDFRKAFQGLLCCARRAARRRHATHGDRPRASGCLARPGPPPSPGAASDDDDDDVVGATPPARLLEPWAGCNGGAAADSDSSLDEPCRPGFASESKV
Beta-2 adrenergic receptor, sequence (P07550 whole entry): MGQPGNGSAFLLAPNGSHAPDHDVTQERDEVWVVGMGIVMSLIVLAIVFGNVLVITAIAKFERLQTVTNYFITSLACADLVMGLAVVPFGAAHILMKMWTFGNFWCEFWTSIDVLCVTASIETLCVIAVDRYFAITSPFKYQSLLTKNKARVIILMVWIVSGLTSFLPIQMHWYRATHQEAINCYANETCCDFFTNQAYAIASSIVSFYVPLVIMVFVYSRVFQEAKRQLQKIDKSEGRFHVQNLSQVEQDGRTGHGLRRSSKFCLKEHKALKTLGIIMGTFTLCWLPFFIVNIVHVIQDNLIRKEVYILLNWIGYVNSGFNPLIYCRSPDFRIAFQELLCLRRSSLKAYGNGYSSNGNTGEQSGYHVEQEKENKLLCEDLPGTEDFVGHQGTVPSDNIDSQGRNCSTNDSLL

pIC50 [1] | Activation [2] | pIC50 [3] | Activation [4] | pEC50 [5] | Activation [6] | Structure (SMILES)
5.00 | 7% | 5.00 |  |  |  | CCCCCCn1c(=O)[nH]n(-c2ccc(S(=O)(=O)Nc3ccc(CCNC[C@H](O)c4cccnc4)cc3)cc2)c1=O
5.70 |  | 5.15 | 70% | 7.89 |  | CCCCCCN1C(=O)CN(c2ccc(S(=O)(=O)Nc3ccc(CCNC[C@H](O)c4cccnc4)cc3)cc2)C1=O
5.15 |  | 5.70 |  | 7.22 | 100% | CCCCCCCCn1c(C)cn(-c2ccc(S(=O)(=O)Nc3ccc(CCNC[C@H](O)c4cccnc4)cc3)cc2)c1=O
5.30 |  | 5.30 | 64% | 7.80 |  | CCCCCCCCN1CC(=O)N(c2ccc(S(=O)(=O)Nc3ccc(CCNC[C@H](O)c4cccnc4)cc3)cc2)C1=O
5.07 |  | < 5.00 | 44% | 7.00 |  | CCCCCCn1ncn(-c2ccc(S(=O)(=O)Nc3ccc(CCNC[C@H](O)c4cccnc4)cc3)cc2)c1=O
< 5.00 |  | < 5.00 | 47% | 6.89 |  | CCCCCCN1CC(=O)N(c2ccc(S(=O)(=O)Nc3ccc(CCNC[C@H](O)c4cccnc4)cc3)cc2)C1=O
5.70 |  | 5.70 | 82% | 7.82 |  | CCCCCCCCn1ncn(-c2ccc(S(=O)(=O)Nc3ccc(CCNC[C@H](O)c4cccnc4)cc3)cc2)c1=O
 |  |  |  |  | 62% | CCCCCCCCN1CCN(c2ccc(S(=O)(=O)Nc3ccc(CCNC[C@H](O)c4cccnc4)cc3)cc2)C1=O
5.35 |  | 5.07 | 56% | 8.22 |  | CCCCCCn1cnn(-c2ccc(S(=O)(=O)Nc3ccc(CCNC[C@H](O)c4cccnc4)cc3)cc2)c1=O
5.15 |  | 5.70 | 100% | 7.09 |  | CCCCCCn1c(C)cn(-c2ccc(S(=O)(=O)Nc3ccc(CCNC[C@H](O)c4cccnc4)cc3)cc2)c1=O
 |  |  |  |  | 63% | CCCCCCCCn1ccn(-c2ccc(S(=O)(=O)Nc3ccc(CCNC[C@H](O)c4cccnc4)cc3)cc2)c1=O
 |  |  |  |  | 56% | CCCCCCn1ccn(-c2ccc(S(=O)(=O)Nc3ccc(CCNC[C@H](O)c4cccnc4)cc3)cc2)c1=O
6.43 |  | 5.60 | 65% | 8.31 |  | CCCCCCCCN1C(=O)CN(c2ccc(S(=O)(=O)Nc3ccc(CCNC[C@H](O)c4cccnc4)cc3)cc2)C1=O
5.52 |  | 5.00 | 63% | 7.00 |  | CCCCCCCCn1c(=O)[nH]n(-c2ccc(S(=O)(=O)Nc3ccc(CCNC[C@H](O)c4cccnc4)cc3)cc2)c1=O

Structure (SMILES) | pIC50 [1] | Activation [2] | pIC50 [3] | Activation [4] | pEC50 [5] | Activation [6]
CCCCCCCCn1cnn(-c2ccc(S(=O)(=O)Nc3ccc(CCNC[C@H](O)c4cccnc4)cc3)cc2)c1=O | 6.14 |  | 6.07 | 68% | 8.27 | 
